How the values were obtained:
Assay type in all cases: in vivo
corn (Zea mays) = assay: Test A postemergence; settings: Zea mays, post-emergence, 240 h, Postemergence, read-out: Corn plant response rating (0 to 100 scale); for plant injury at 125 g/ha: 125 g ai/ha, visual rating about 10 d after treatment; for plant injury at 31 g/ha: 31 g ai/ha, 0 is no effect, 100 is complete control
Method in brief: (§1)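 Ratings of 0 (no effect) to 100 (complete control) come from visual comparison with untreated controls roughly 10 d after treatment. Test chemicals, formulated in a non-phytotoxic solvent mixture with surfactant, were applied either as a preemergence directed soil spray on seeded soil or postemergence to one- to two-leaf plants 2 to 10 cm tall.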

[1] = system: blackgrass (Alopecurus myosuroides); assay: Test A postemergence; settings: Alopecurus myosuroides, post-emergence, 240 h, Postemergence, read-out: Blackgrass plant response rating (0 to 100 scale); for pest or weed control at 125 g/ha: 125 g ai/ha, visual rating about 10 d after treatment; for pest or weed control at 31 g/ha: 31 g ai/ha, 0 is no effect, 100 is complete control
Method in brief: as §1

[2] = system: giant foxtail (Setaria faberii); assay: Test A postemergence; settings: Setaria faberi, post-emergence, 240 h, Postemergence, read-out: Foxtail, Giant plant response rating (0 to 100 scale); for pest or weed control at 125 g/ha: 125 g ai/ha, visual rating about 10 d after treatment; for pest or weed control at 31 g/ha: 31 g ai/ha, 0 is no effect, 100 is complete control
Method in brief: as §1

Kochia (Kochia scoparia) [3] = assay: Test A postemergence; settings: Bassia scoparia, post-emergence, 240 h, Postemergence, read-out: Kochia plant response rating (0 to 100 scale); for pest or weed control at 125 g/ha: 125 g ai/ha, visual rating about 10 d after treatment; for pest or weed control at 31 g/ha: 31 g ai/ha, 0 is no effect, 100 is complete control
Method in brief: as §1

[4] = system: Galium (catchweed bedstraw, Galium aparine); assay: Test A postemergence; settings: Galium, post-emergence, 240 h, Postemergence, read-out: Galium plant response rating (0 to 100 scale); for pest or weed control at 125 g/ha: 125 g ai/ha, visual rating about 10 d after treatment; for pest or weed control at 31 g/ha: 31 g ai/ha, 0 is no effect, 100 is complete control
Method in brief: as §1

[5] = system: pigweed (Amaranthus retroflexus); assay: Test A postemergence; settings: Amaranthus retroflexus, post-emergence, 240 h, Postemergence, read-out: Pigweed plant response rating (0 to 100 scale); for pest or weed control at 125 g/ha: 125 g ai/ha, visual rating about 10 d after treatment; for pest or weed control at 31 g/ha: 31 g ai/ha, 0 is no effect, 100 is complete control
Method in brief: as §1

[6] = system: wheat (Triticum aestivum); assay: Test A postemergence; settings: Triticum aestivum, post-emergence, 240 h, Postemergence, read-out: Wheat plant response rating (0 to 100 scale); for plant injury at 125 g/ha: 125 g ai/ha, visual rating about 10 d after treatment; for plant injury at 31 g/ha: 31 g ai/ha, 0 is no effect, 100 is complete control
Method in brief: as §1

[7] = system: ryegrass, Italian (Italian ryegrass, Lolium multiflorum); assay: Test A postemergence; settings: Lolium multiflorum, post-emergence, 240 h, Postemergence, read-out: Ryegrass, Italian plant response rating (0 to 100 scale); for pest or weed control at 125 g/ha: 125 g ai/ha, visual rating about 10 d after treatment; for pest or weed control at 31 g/ha: 31 g ai/ha, 0 is no effect, 100 is complete control
Method in brief: as §1

[8] = system: ragweed (common ragweed, Ambrosia elatior); assay: Test A postemergence; settings: Ambrosia artemisiifolia, post-emergence, 240 h, Postemergence, read-out: Ragweed plant response rating (0 to 100 scale); for pest or weed control at 125 g/ha: 125 g ai/ha, visual rating about 10 d after treatment; for pest or weed control at 31 g/ha: 31 g ai/ha, 0 is no effect, 100 is complete control
Method in brief: as §1

[9] = system: barnyardgrass (Echinochloa crus-galli); assay: Test A postemergence; settings: Echinochloa crus-galli, post-emergence, 240 h, Postemergence; for pest or weed control at 125 g/ha: 125 g ai/ha, visual rating about 10 d after treatment, read-out: Barnyardgrass plant response rating (0 to 100 scale, 0 no effect, 100 complete control); for pest or weed control at 31 g/ha: 31 g ai/ha, 0 is no effect, 100 is complete control, read-out: Barnyardgrass plant response rating (0 to 100 scale)
Method in brief: as §1

[10] = system: giant foxtail (Setaria faberii); assay: Test A preemergence; settings: Setaria faberi, pre-emergence, 240 h, Preemergence; for pest or weed control at 31 g/ha: 31 g ai/ha, 0 to 100 scale where 0 is no effect and 100 is complete control, read-out: Foxtail, Giant plant response rating; for pest or weed control at 125 g/ha: 125 g ai/ha, 0 to 100 scale (0 no effect, 100 complete control), read-out: Plant response rating, Foxtail, Giant
Method in brief: as §1

Kochia (Kochia scoparia) [11] = assay: Test A preemergence; settings: Bassia scoparia, pre-emergence, 240 h, Preemergence; for pest or weed control at 31 g/ha: 31 g ai/ha, 0 to 100 scale where 0 is no effect and 100 is complete control, read-out: Kochia plant response rating; for pest or weed control at 125 g/ha: 125 g ai/ha, 0 to 100 scale (0 no effect, 100 complete control), read-out: Plant response rating, Kochia
Method in brief: as §1

[12] = system: pigweed (Amaranthus retroflexus); assay: Test A preemergence; settings: Amaranthus retroflexus, pre-emergence, 240 h, Preemergence; for pest or weed control at 31 g/ha: 31 g ai/ha, 0 to 100 scale where 0 is no effect and 100 is complete control, read-out: Pigweed plant response rating; for pest or weed control at 125 g/ha: 125 g ai/ha, 0 to 100 scale (0 no effect, 100 complete control), read-out: Plant response rating, Pigweed
[13] = system: ryegrass, Italian (Italian ryegrass, Lolium multiflorum); assay: Test A preemergence; settings: Lolium multiflorum, pre-emergence, 240 h, Preemergence; for pest or weed control at 31 g/ha: 31 g ai/ha, 0 to 100 scale where 0 is no effect and 100 is complete control, read-out: Ryegrass, Italian plant response rating; for pest or weed control at 125 g/ha: 125 g ai/ha, 0 to 100 scale (0 no effect, 100 complete control), read-out: Plant response rating, Ryegrass, Italian
Method in brief: as §1

[14] = system: ragweed (common ragweed, Ambrosia elatior); assay: Test A preemergence; settings: Ambrosia artemisiifolia, pre-emergence, 240 h, Preemergence; for pest or weed control at 31 g/ha: 31 g ai/ha, 0 to 100 scale where 0 is no effect and 100 is complete control, read-out: Ragweed plant response rating; for pest or weed control at 125 g/ha: 125 g ai/ha, 0 to 100 scale (0 no effect, 100 complete control), read-out: Plant response rating, Ragweed
Method in brief: as §1

[15] = system: barnyardgrass (Echinochloa crus-galli); assay: Test A preemergence; settings: Echinochloa crus-galli, pre-emergence, 240 h, Preemergence; for pest or weed control at 31 g/ha: 31 g ai/ha, 0 to 100 scale where 0 is no effect and 100 is complete control, read-out: Barnyardgrass plant response rating; for pest or weed control at 125 g/ha: 125 g ai/ha, 0 to 100 scale (0 no effect, 100 complete control), read-out: Plant response rating, Barnyardgrass
Method in brief: as §1

rice (Oryra sativa) = assay: Test B flooded paddy test; settings: Oryza sativa, 360 h, Flood, 250 g ai/ha; visually evaluated after 13 to 15 d; read-out: Plant response rating, Rice (0 to 100 scale where 0 is no effect and 100 is complete control)
Method in brief: (§2)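 Response scored visually against untreated controls, 0 = no effect and 100 = complete control, 13–15 d after treatment in the greenhouse. Compounds added to paddy water held 3 cm above soil surface. Treatment given at 2-leaf stage.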

[16] = system: sedge, umbrella (small-flower umbrella sedge, Cyperus difformis); assay: Test B flooded paddy test; settings: Cyperus difformis, 360 h, Flood, 250 g ai/ha; visually evaluated after 13 to 15 d; read-out: Plant response rating, Sedge, Umbrella (0 to 100 scale where 0 is no effect and 100 is complete control)
Method in brief: as §2

[17] = system: barnyardgrass (Echinochloa crus-galli); assay: Test B flooded paddy test; settings: Echinochloa crus-galli, 360 h, Flood, 250 g ai/ha; visually evaluated after 13 to 15 d; read-out: Plant response rating, Barnyardgrass (0 to 100 scale where 0 is no effect and 100 is complete control)
Method in brief: as §2

[18] = system: ducksalad (Heteranthera limosa); assay: Test B flooded paddy test; settings: Heteranthera limosa, 360 h, Flood, 250 g ai/ha; visually evaluated after 13 to 15 d; read-out: Plant response rating, Ducksalad (0 to 100 scale where 0 is no effect and 100 is complete control)
Method in brief: as §2

With `Cc1cccc([C@H]2CN(C)C(=O)[C@@H]2C(=O)Nc2cnccc2C)c1` [Compound 1344] the plant injury at 125 g/ha (corn (Zea mays)) was 0%, the plant injury at 31 g/ha (corn (Zea mays)) was 0% and the pest or weed control at 125 g/ha [1] was 0%. It also gave a pest or weed control at 31 g/ha [1] of 0%, a pest or weed control at 125 g/ha [2] of 0% and a pest or weed control at 31 g/ha [2] of 0%. It also gave a pest or weed control at 125 g/ha (Kochia (Kochia scoparia) [3]) of 0%, a pest or weed control at 31 g/ha (Kochia (Kochia scoparia) [3]) of 0% and a pest or weed control at 125 g/ha [4] of 0%. It also gave a pest or weed control at 31 g/ha [4] of 0%, a pest or weed control at 125 g/ha [5] of 0% and a pest or weed control at 31 g/ha [5] of 0%. It also gave a plant injury at 125 g/ha [6] of 0%, a plant injury at 31 g/ha [6] of 0% and a pest or weed control at 125 g/ha [7] of 0%. For the same compound, the pest or weed control at 31 g/ha [7] was 0%, the pest or weed control at 125 g/ha [8] was 0% and the pest or weed control at 31 g/ha [8] was 0%. It also gave a pest or weed control at 125 g/ha [9] of 0%, a pest or weed control at 31 g/ha [9] of 0% and a pest or weed control at 31 g/ha [10] of 0%. It also gave a pest or weed control at 125 g/ha [10] of 0%, a pest or weed control at 31 g/ha (Kochia (Kochia scoparia) [11]) of 0% and a pest or weed control at 125 g/ha (Kochia (Kochia scoparia) [11]) of 0%. The pest or weed control at 31 g/ha [12] was 0%, the pest or weed control at 125 g/ha [12] was 0% and the pest or weed control at 31 g/ha [13] was 0%. The pest or weed control at 125 g/ha [13] was 0%, the pest or weed control at 31 g/ha [14] was 0% and the pest or weed control at 125 g/ha [14] was 0%. The pest or weed control at 31 g/ha [15] was 0%, the pest or weed control at 125 g/ha [15] was 0% and the pest or weed control at 250 g/ha (rice (Oryra sativa)) was 0%. It also gave a pest or weed control at 250 g/ha [16] of 0%, a pest or weed control at 250 g/ha [17] of 0% and a pest or weed control at 250 g/ha [18] of 0%.
`CN1C[C@H](c2cccc(C(F)(F)F)c2)[C@@H](C(=O)Nc2ccc(F)nc2F)C1=O` [Compound 1348] gave a plant injury at 125 g/ha (corn (Zea mays)) of 80%, a plant injury at 31 g/ha (corn (Zea mays)) of 50% and a pest or weed control at 125 g/ha [1] of 50%. It also gave a pest or weed control at 31 g/ha [1] of 50%, a pest or weed control at 125 g/ha [2] of 90% and a pest or weed control at 31 g/ha [2] of 90%. The pest or weed control at 125 g/ha (Kochia (Kochia scoparia) [3]) was 50%, the pest or weed control at 31 g/ha (Kochia (Kochia scoparia) [3]) was 0% and the pest or weed control at 125 g/ha [4] was 70%. For the same compound, the pest or weed control at 31 g/ha [4] was 50%, the pest or weed control at 125 g/ha [5] was 0% and the pest or weed control at 31 g/ha [5] was 0%. For the same compound, the plant injury at 125 g/ha [6] was 60%, the plant injury at 31 g/ha [6] was 40% and the pest or weed control at 125 g/ha [7] was 30%. It also gave a pest or weed control at 31 g/ha [7] of 20%, a pest or weed control at 125 g/ha [8] of 20% and a pest or weed control at 31 g/ha [8] of 0%. The pest or weed control at 125 g/ha [9] was 90%, the pest or weed control at 31 g/ha [9] was 90% and the pest or weed control at 31 g/ha [10] was 100%. For the same compound, the pest or weed control at 125 g/ha [10] was 100%, the pest or weed control at 31 g/ha (Kochia (Kochia scoparia) [11]) was 0% and the pest or weed control at 125 g/ha (Kochia (Kochia scoparia) [11]) was 80%. The pest or weed control at 31 g/ha [12] was 0%, the pest or weed control at 125 g/ha [12] was 100% and the pest or weed control at 31 g/ha [13] was 20%. For the same compound, the pest or weed control at 125 g/ha [13] was 60%, the pest or weed control at 31 g/ha [14] was 80% and the pest or weed control at 125 g/ha [14] was 20%. It also gave a pest or weed control at 31 g/ha [15] of 90%, a pest or weed control at 125 g/ha [15] of 100% and a pest or weed control at 250 g/ha (rice (Oryra sativa)) of 0%. The pest or weed control at 250 g/ha [16] was 0%, the pest or weed control at 250 g/ha [17] was 90% and the pest or weed control at 250 g/ha [18] was 98%.
